These results are taken from publication PMC10119930, “Dual Molecules Targeting 5-HT6 and GABA-A Receptors as a New Approach to Combat Depression Associated with Neuroinflammation” (ACS Chemical Neuroscience, 2023).

Test [1] has as its target muscimol site of the GABA-A receptor. Description: Radioligand binding assay for GABA-A receptor ([3H]muscimol displacement, rat brain homogenate). The conditions noted are these: competitive replacement of [3H]muscimol; ±S.E.M. As for the experimental part:
The study was acquired according to the earlier protocols.[39] The rats’ brains were homogenized and prepared accurately according to the previous protocol.[39] On the day of the study, brain homogenates were thawed at room temperature and “diluted” in 20 volumes of ice-cold 50 mM Tris-HCl buffer (pH 7.4) and centrifuged (20.000g, 30 min, 0–4 °C). The assay was performed directly on 96-well microplates, which contained 50 mM Tris-HCl buffer (pH 7.4) in a total volume of 300 μL. Reaction mix included 240 μL of the brain tissue suspension, 30 μL of [^3H]-muscimol, and 30 μL solution of tested compounds (administrated at various concentrations: 10^–10–10^–5 M). […] The 96-well microplates containing the reaction mix were incubated for 10 min at 0 °C, followed by rapid filtration over glass fiber filters FilterMate B (PerkinElmer, USA) using the Harvester-96 MACH III FM (Tomtec, USA). The filter mats were dried using a microwave and then placed inside a plastic bag (PerkinElmer, USA). After that, they were soaked in 10 mL of Ultima Gold MV liquid scintillation cocktail (PerkinElmer, USA). […] Ki values were estimated according to the Cheng and Prusoff equation. The study was performed in duplicates. The statistical analysis was performed using (GraphPad Prism, version 4.0, San Diego, CA, USA).

The subject of test [2] is human α1β2γ2-GABA-A receptors. The test is described as follows: Electrophysiological studies, automated patch clamp (QPatch16X), HEK293 cells. Format: cell-based. The settings on record: agonist mode, compound at 10 μM; current amplitude normalized to 10 μM GABA response; ±S.E.M. As to the method: Electrophysiological studies were acquired using the QPatch16X automatic patch clamp platform (Sophion Biosciences) as described before.[42],[43] […] Before the assay, cells were detached from the culture flask by treating them with TrypLE Express solution (Life Technologies) and subsequently suspended in serum-free media. The cells were loaded into a 1.5 mL microtube on the automated electrophysiology instrument, which subsequently performed a spin-down using its built-in centrifuge. Following this, the cells were washed with Ringer’s extracellular solution. The cells were moved to the pipetting wells of a 16-channel planar patch chip plate (QPlate 16X) designed for single-use. A combined suction/voltage protocol was then applied to establish gigaseals. […] During the entire whole-cell recording, the holding potential was maintained at −90 mV. […] The intracellular solution contained 140 mM CsF, 1 mM EGTA, 5 mM CsOH, 10 mM HEPES, 20 mMNaCl (pH 7.2, 320 mOsm). […] The acquired data were examined with QPatch assay software (v5.0, Sophion Biosciences)[44] and are represented as the mean of three separated measurements performed on distinct cells. The efficacy of the tested molecules was determined by calculating the baseline-corrected ratio of the maximum current amplitudes elicited by the tested compounds and the reference agonist (T1-ATG/AG1-ATG or T2-ATG/AG1-ATG). The raw current recordings were standardized and presented as a percentage of the current amplitude evoked by the reference agonist, using the QPatch assay software (v5.0, Sophion Biosciences).

In test [3] the target is T1, 5-HT6 receptor (Homo sapiens, UniProt P50406). The test is described as follows: Radioligand binding assay for 5-HT6 receptor ([3H]-LSD displacement). The conditions noted are these: for Ki: competitive replacement of [3H]-LSD, ±S.E.M., read-out: 5-HT6R Ki. On the set-up: expressed in transfected cells; host or cells: HEK-293 (cryopreserved membranes). As for the experimental part: To determine the affinity for 5-HT6, the cryopreserved membranes from HEK-293 cells stably transfected with the human recombinant 5-HT6 receptor were used.[40] Preparation of the tested compounds included preparation of stock solutions in DMSO (1 mM) and subsequent serial dilutions (10^–10–10^–5 M) of tested compounds in the appropriate buffer (50 mM Tris buffer, pH 7.4, 10 mM MgCl2, 0.5 mM ethylenediaminetetraacetic acid). The serial dilutions were acquired directly on a 96-well microplate. The reaction mix included 50 μL of appropriate concentration of tested molecule, 50 μL of [^3H]LSD 2.5/2.0 nM, and 150 μL of diluted membranes. The microplate containing the reaction mix was protected with a sealing tape and incubated for 60 min at 37 °C. Quenching of the reaction mixtire included: rapid filtration through UniFilter 96 GF/B filter microplate and rapid washes using 200 μL 50 mM assay buffer and vacuum manifold and 96-well pipettor. The collected microplates were dried overnight at 37 °C. The UniFilter bottoms were sealed, and then 30 μL of Betaplate Scint liquid scintillator (PerkinElmer) was added to each well. […] The obtained data were fit to a one-site curve-fitting equation using Prism 5 software (GraphPad Software), and the Ki values were determined using the Cheng–Prusoff equation. Radioligand binding was performed in duplicates.

Test [4] concerns the target T1, 5-HT6 receptor. The test is described as follows: Functional assay for 5-HT6 receptor, antagonist mode (aequorin, CHO-K1 cells). On the set-up: expressed in transfected cells; host or cells: CHO-K1 (co-expressing mitochondrially targeted aequorin and G protein α16). The settings on record: ±S.E.M., read-out: 5-HT6 R KB. Format: cell-based. As to the method: The studies were acquired according to previous protocols.[41] All the examined compounds (novel and the reference) were dissolved in DMSO (1 mM) and diluted accordingly using the assay buffer, directly in 96-well microplate. The recombinant CHO-K1 cells expressing human GPCR, mitochondrially targeted aequorin, and the promiscuous G protein α16 specific for 5-HT6 were used for the functional assay. The cells were thawed and suspended in the appropriate buffer containing DMEM/HAM’s F12 with 0.1% protease free BSA and were then centrifuged. After adding coelenterazine h to a final concentration of 5 μM, the cell pellet was resuspended in the buffer. The cell suspension was incubated at 16 °C for 16 h while being protected from light, gently shaken, and diluted with assay buffer to a concentration of 5000 cells/mL. Following that, 50 μL of the cell suspension was introduced to preloaded white opaque 96-well microplates containing the tested molecules. This was done using the automatic injectors integrated into the radiometric and luminescence plate counter MicroBeta2 LumiJET (PerkinElmer, USA). The light emission resulting from calcium mobilization was monitored for a duration of 60 s. For examination of the antagonistic properties of tested molecule, following 30 min of incubation, the reference agonist was administrated and the light emission was detected.

Test [5] relates to BV-2 microglia cells. Description: Anti-inflammatory assessment in LPS-stimulated BV-2 cells (NO, ROS, IL-6, TNF-α). Format: cell-based, mouse. The conditions noted are these: 10 μM pretreatment 1 h, then LPS 18 h. As for the experimental part:
Mouse microglial (BV-2) cell line was a generous gift from Prof. Bożena Kamińska-Kaczmarek of the Nencki Institute of Experimental Biology, Polish Academy of Sciences, Warsaw, Poland. The cell culture medium: Dulbecco’s modified with high glucose (DMEM, Glutamx ThermoFisher) and supplemented with 10% inactivated fetal bovine serum heat (ThermoFisher), 100 IU/mL penicillin (Merck) and 100 μg/mL streptomycin (Merck). Cell culture conditions: culture flasks (area 175 cm^2, Nunc), temperature of 37 °C, 5% CO2. For the assessment of the effect of tested compounds on the quantities of reactive oxygen species, nitric oxide, and inflammatory markers, the BV-2 cells were positioned in a 96-well culture plate (5 × 10^4 cells per well, Falcon). In the case of cell membrane damage assay, a 96-well culture plate (2 × 10^4 cells per well, Falcon) was used. The cells were cultured in the incubator (37 °C, 5% CO2) for 24 h prior to the assay. The tested compounds were dissolved in DMSO to achieve the concentration of 10^–2 M. Serial dilutions of the compounds were prepared in PBS and added directly to the medium containing adherent cells. The resulting mixtures were examined for any evidence of precipitation or opalescence before the assay. BV-2 cells were incubated with selected molecules (6, 16 at a concentration of 10 μM) during 1 h. Subsequently, lipopolysaccharide (100 ng/mL) was added and the resulting mixture was incubated for 18 h. Next, the culture supernatant was collected to measure the levels of nitric oxide (NO), reactive oxygen species (ROS), IL-6, and TNF-α according to the procedures described in detail below. All experiments were performed in duplicates, in three independent experiments.
The quantities of NO produced by the cells were determined using DAN reagent (2,3-diaminonaphthalene), rendering the method protocol described by Nussler et al.[48] After incubating at room temperature for 15 min, the fluorescence intensity (EX 360; EM 440 nm) was measured using a microplate reader POLARstar Omega from BMG Labtech. The amounts of NO were then calculated as a percentage of the control (which represents the maximal response of LPS). ROS measurement. The fluorescent dye 2,7-dichlorodihydrofluorescein diacetate (DCFH-DA)[49] was utilized to determine the quantity of ROS released by BV-2 cells. After a 30 min incubation period at 37 °C with 10 μM DCFH-DA, the fluorescence intensity (EX 490; EM 520 nm) was examined using a microplate reader POLARstar Omega from BMG Labtech. The amounts of ROS were then expressed as a percentage of the control (which represents the maximal response of LPS). The IL-6 and TNF-α levels detected in the culture supernatants were quantified using LANCE Ultra TR-FRET detection kit (PerkinElmer), rendering the manufacturer’s procedure. The detection of IL-6 and TNF-α was performed independently in a 384-well plate according to the instructions provided. To each well of the plate, 15 μL of sample was added followed by the addition of 5 μL of premixed antibody solution. After incubating IL-6 for 1 h and TNF-α for 3 h in the absence of light, at 22 °C, the plates were transferred to an EnVision plate reader (PerkinElmer). Measurements were conducted at 320 nm wavelength for excitation, at 615 nm for donor emission, and at 660 nm for acceptor emission. The final data were determined as the ratio of the 660 nm signal to the 615 nm signal. The results represent the levels of each cytokine determined as a percentage of control (considered as maximal cell response to LPS). The GraphPad program was used to conduct statistical analysis, with all outcomes presented as mean values with standard deviation (SD). Differences between groups were assessed using one-way ANOVA, followed by post hoc analysis (Dunnett’s multiple comparison tests). Results were considered statistically significant if the p-value was less than 0.05. […]

Test [6] relates to BV-2 microglia cells. Description: Evaluation of microglia morphology by fluorescence microscopy (MitoTracker) after LPS. Format: cell-based, mouse. The conditions noted are these: 10 μM pretreatment 1 h, LPS 18 h.
A further test relates to female Wistar rats. The test is described as follows: Forced swim test in rats. Format: in vivo, rat. The conditions noted are these: acute, ip 30 min before test. As to the method:
Naïve female Wistar rats (weighing 180–200 g) were used in the study. The animals were housed in groups of three to four in standard Makrolon cages (37 cm × 21 cm × 15 cm) under strictly controlled laboratory conditions (ambient temperature 21–24 °C, relative humidity 45–65%) with a 12/12 h light–dark regime (light on at 6:00 a.m. and off at 6:00 p.m.). Animals had unrestricted access to tap water and food (typical pellets). Prior the experiment the animals were randomly appointed to the group. The behavioral studies were accomplished between 8:00 a.m. and 5:00 p.m. with the researcher blind to the study. The experiments were performed according to protocols approved by the Local Ethical Committee in Krakow (Approval Number 147/2018), Poland. Housing and experimental procedures were conducted under the European Union Directive of September 22, 2010 (2010/63/EU) and Polish legislation regarding animal studies. All efforts were made to minimize animal suffering and the number of animals used in the study.
Vortioxetine (Sigma, Germany) and the tested compounds (16 and 6) were dissolved in 10% cyclodextrin and administered ip 30 min before the test or during 14 consecutive days, with the last injection 60 min before the test. 10% cyclodextrin was administrated to control group.
A modified forced swim test was carried out according to Detke et al.[50],[51] First, the animals were individually placed inside Plexiglas cylinders, which were 40 cm high and 18 cm in diameter, filled with water at a temperature of 23–25 °C for 15 min. Afterward, the rats were transferred to a Plexiglas box and kept under a 60 W bulb for 30 min to dry. The day after, exactly 24 h later, the rats were once again placed in the cylinder, and their duration of immobility, swimming, and climbing was observed and recorded during a 5 min. The swimming behavior involved energetic movements such as horizontal swimming around the cylinder, while climbing activity referred to upward movements of the forepaws along the swim chamber’s side. Immobility was recorded when the rat only made necessary movements to keep its head above the water. For each test, a fresh water was provided. Open field test in rats: The test was conducted as previously reported by our research group.[52] The test was performed in a darkened room employing the Motor Monitor System (Campden Instruments, Ltd., U.K.). The system was equipped with two SmartFrame Open Field stations, each measuring 40 cm × 40 cm × 38 cm and consisting of 16 × 16 beams. These stations were placed inside sound-attenuating chambers and connected to a PC software using […]. The animals, belonging to either the vehicle-injected or drug-injected group, were individually positioned at the center of the station. The Motor Monitor System, which was automated, recorded the animal’s ambulation in both the X and Y axes, as well as the number of rearing and peeping episodes. Additionally, the total distance traveled by each animal during the 5 min test period was also recorded. Statistical analysis: Results are presented as the mean ± SEM values. They were estimated using one-way analysis of variance (ANOVA), followed by Newman–Keuls post hoc or unpaired two-tailed Student t test. Statistical significance was considered when p < 0.05 for differences between groups.

“And” between values parts separate entries of the source, which are not always exact repeats. Identical values can stand only once.

T1 sequence (P50406 whole entry): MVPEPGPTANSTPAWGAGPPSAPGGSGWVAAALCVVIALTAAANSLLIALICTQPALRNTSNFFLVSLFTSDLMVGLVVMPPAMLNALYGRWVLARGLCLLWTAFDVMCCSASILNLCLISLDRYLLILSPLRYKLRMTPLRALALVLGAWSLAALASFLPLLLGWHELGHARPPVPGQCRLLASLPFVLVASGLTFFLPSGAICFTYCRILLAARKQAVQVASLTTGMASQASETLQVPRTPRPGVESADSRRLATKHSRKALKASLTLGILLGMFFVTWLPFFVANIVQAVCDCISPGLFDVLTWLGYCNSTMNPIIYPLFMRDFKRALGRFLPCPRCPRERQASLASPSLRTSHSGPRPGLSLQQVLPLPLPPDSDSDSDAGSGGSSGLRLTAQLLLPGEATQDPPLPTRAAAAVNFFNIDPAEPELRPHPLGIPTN

For orientation: Ki means a dissociation constant, usually derived from enzyme kinetics or from competition with a known ligand. By Kb is commonly meant the equilibrium dissociation constant of an antagonist, usually derived from a functional assay. In the case of `Cl.Cl.NCCCC(=O)OCCN1CCN(c2cccc3c2OCC(=O)N3Cc2ccccc2)CC1` [Compound 19, 1-(2-((4-Ammoniobutanoyl)oxy)ethyl)-4-(4-benzyl-3-oxo-3,4-dihydro-2H-benzo[b][1,4]oxazin-8-yl)piperazin-1-ium Dichloride], the Ki stood at 0.247 ± 0.0247 µM in test [1] and 0.025 ± 0.001 µM on 5-HT6 receptor [3]. Moreover, the “[%] of 10 μM GABA activity” value in test [2] is 9.5% and 9.5 ± 3.5%. The “fold higher 5-HT6 affinity compared to 18” value at 5-HT6 receptor [3] (ratio of Ki values) was 5 fold. Moreover, the Kb at 5-HT6 receptor [4] was determined as 0.007 ± 0.0001 µM.
Consider `Cc1c(OCc2ccccc2)cccc1N1CCN(CCO)CC1` [Compound 6, 2-(4-(3-(Benzyloxy)-2-methylphenyl)piperazin-1-yl)ethan-1-ol], for which, in the test with BV-2 microglia cells [5], the “LPS-induced IL-6 production” value is recorded as “did not change”, the “LPS-induced NO production” value is “did not change”, the “LPS-induced ROS production” value is given as “did not change” and the “LPS-induced TNF-α production” value is on record as “did not change”. Besides, in the test with BV-2 microglia cells [6], the “mitochondrial membrane potential / morphology of microglia exposed to LPS” value was “mitochondrial membrane potential was changed”. Further, the “immobility, climbing and swimming behaviors” value with female Wistar rats is on record as “did not influence any of the above behaviors”. Besides, at 5-HT6 receptor [3], the Ki came out at 0.008 ± 0.0008 µM.
